Patent US20240131040A1, “COMPOSITIONS AND METHODS RELATED TO CANNABINOID ANIONS” (NATURAL EXTRACTION SYSTEMS, LLC, priority 2021, published 2024)

Tests used:
[1] = system: individual who presented with plaque psoriasis; test: Case report: plaque psoriasis; assay type: in vivo, humans; conditions: glycerol formulation, topical
Text: An individual who presented with plaque psoriasis topically administered a glycerol formulation containing the cannabigerol anion.

[2] = system: individual who presented with Crohn's disease; test: Case report: Crohn's disease; assay type: in vivo, humans; conditions: glycerol tincture
Method: An individual who presented with Crohn's disease was administered a glycerol tincture containing the cannabigerol anion.

individuals with anxiety = test: Case reports: anxiety; assay type: in vivo, humans
Method: An individual was administered a beverage containing the cannabidiol anion prior to driving to an airport to catch a flight that was scheduled to leave within thirty minutes of the arrival at the airport.
An individual who suffers from chronic anxiety was administered a glycerol tincture containing the cannabigerol anion.

[3] = system: individual who presented with peripheral neuropathy; test: Case report: peripheral neuropathy; assay type: in vivo, humans; conditions: glycerol formulation, topical
Text: An individual who presented with peripheral neuropathy topically administered a glycerol formulation containing the cannabigerol anion.

[4] = system: individual who presented with chronic insomnia; test: Case report: insomnia; assay type: in vivo, humans; conditions: glycerol tincture before sleep
Method: An individual who presented with chronic insomnia was administered a glycerol tincture containing the cannabigerol anion before sleep.

[5] = system: individual who presented with Inflammatory Bowel Disease; test: Case report: Inflammatory Bowel Disease; assay type: in vivo, humans; conditions: glycerol tincture
Method: An individual who presented with Inflammatory Bowel Disease was administered a glycerol tincture containing the cannabigerol anion.

Female Sabra mice = test: Zymosan A right hind paw arthritis model: paw swelling (calipers) and pain (Von Frey); assay type: in vivo; conditions: relative to vehicle control groups, 1-64 mg/kg/day oral gavage for one month; for right hind paw inflammation: swelling at 1, 2, 6, 12, 24 hours after zymosan A; for right hind paw pain: Von Frey hair aesthesiometer
Method: (§1) Female Sabra mice are administered either vehicle or a cannabinoid. The cannabinoid is selected from 2-geranyl-5-pentylbenzene-1,3-diol (“cannabigerol”) and 2-geranyl-5-propylbenzene-1,3-diol (“cannabigerovarin”). The cannabinoid is administered at an amount of either 1, 2, 4, 8, 16, 32, or 64 milligrams cannabinoid per kilogram mouse body weight per day by oral gavage beginning when they are two months old.
(§2) Following one month of administration of either vehicle or a cannabinoid, 30 microliters of a 2 percent weight-by-volume suspension of zymosan A in saline is injected into each right hind paw of the mice. Inflammation is measured with calipers to determine right hind paw swelling at 1, 2, 6, 12, and 24 hours following the zymosan A injection relative to left hind paw. Pain is measured with a Von Frey hair aesthesiometer to determine right hind paw sensitivity to force relative to left hind paw. Serum TNF-alpha concentration is measured at 24 hours by enzyme-linked immunosorbent assay.

[6] = system: neutrophil-mediated inflammation; test: Zymosan A knee arthritis model: neutrophil elastase imaging and transcript RT-PCR; assay type: in vivo; conditions: male C57BL/6J mice; for imaged right knee neutrophil elastase: relative to vehicle control group, imaged 4 hours post-injection, 1-64 mg/kg/day oral gavage; for adamts4 transcripts / myeloperoxidase transcripts / neutrophil elastase transcripts: relative to vehicle control groups, real-time PCR
Method: Male C57BL/6J mice are administered either vehicle or a cannabinoid. The cannabinoid is selected from cannabigerol and cannabigerovarin. The cannabinoid is administered at an amount of either 1, 2, 4, 8, 16, 32, or 64 milligrams cannabinoid per kilogram mouse body weight per day by oral gavage beginning when they are two months old.
Following one month of administration, mice are anesthetized with isoflurane and then 180 micrograms of zymosan A in saline is injected into the right knee of each mouse. Equivalent volumes of saline are injected into the left knee of each mouse. Mice are then injected with Neutrophil Elastase 680 FAST imaging probe (Perkin Elmer, Massachusetts, United States) and imaged 4 hours post-injection using an IVIS Spectrum In Vivo Imaging System (Perkin Elmer) to measure neutrophil-mediated inflammation. Mouse RNA is extracted and purified, and then relative adamts4 transcript, relative neutrophil elastase transcript, and relative myeloperoxidase transcript concentrations are measured following reverse transcription using real-time polymerase chain reactions.

TNF-alpha = test: Serum TNF-alpha by enzyme-linked immunosorbent assay in zymosan A paw model; assay type: in vivo, mice; conditions: relative to vehicle control groups; 24 hours after zymosan A; 1-64 mg/kg/day oral gavage
Method: as §1, §2

Mice fed a high-fat diet = test: Diet-induced obesity model: body weight, serum ALT/AST, liver steatosis; assay type: in vivo; conditions: 1-64 mg/kg/day oral gavage for two months; for liver steatosis: hematoxylin and eosin staining
Method: Mice are fed either a control standard diet or a high-fat diet beginning when they are two months old. The mice are concomitantly administered either vehicle or a cannabinoid selected from cannabigerol and cannabigerovarin at an amount of either 1, 2, 4, 8, 16, 32, or 64 milligrams cannabinoid per kilogram mouse body weight per day by oral gavage.
Mouse body weights are measured daily. The mice are sacrificed when they are four months old following two months of the diet, cannabinoid (or vehicle), and weighing. Serum alanine aminotransferase (“ALT”) and serum aspartate aminotransferase (“AST”) are measured using a Reflotran Plus blood chemistry system (Roche, Switzerland). Mouse livers are fixed and then stained with hematoxylin and eosin to visualize liver steatosis.

[7] = system: individual who presented with chronic back pain associated with standing; test: Case report: chronic back pain; assay type: in vivo, humans; conditions: glycerol tincture, ingested
Method: An individual who presented with chronic back pain associated with standing was administered a glycerol tincture containing the cannabidiol anion.

[8] = system: individual who presented with cancer pain caused by throat cancer; test: Case report: cancer pain; assay type: in vivo, humans; conditions: water containing the anion, ingested
Method: An individual who presented with cancer pain caused by throat cancer was administered water containing the cannabidiol anion (2-[6-isopropenyl-3-methylcyclohex-2-enyl]-3-hydroxy-5-pentylphenolate).

[9] = system: individual who presented with social anxiety associated with presenting at business meetings; test: Case report: social anxiety; assay type: in vivo, humans; conditions: beverage containing the anion, before presenting
Method: An individual who presented with social anxiety associated with presenting at business meetings was administered a beverage containing the cannabidiol anion before presenting.

[10] = system: individual who presented with chronic pain; test: Case report: chronic pain; assay type: in vivo, humans; conditions: glycerol tincture
Method: An individual who presented with chronic pain was administered a glycerol tincture containing the cannabidiol anion.

[11] = system: individual who presented with knee pain associated with inflammation caused by trauma from a fall; test: Case report: knee pain; assay type: in vivo, humans; conditions: glycerol tincture, ingested
Method: An individual who presented with knee pain associated with inflammation caused by trauma from a fall was administered a glycerol tincture containing the cannabidiol anion.

[12] = system: dog that suffers from chronic seizures; test: Case report: epilepsy in a dog; assay type: in vivo; conditions: glycerol tincture immediately after the onset of a seizure
Method: A dog that suffers from chronic seizures was administered a glycerol tincture containing the cannabidiol anion immediately after the onset of a seizure.

[13] = system: individual with arthritis; test: Case report: arthritis; assay type: in vivo, humans; conditions: glycerol tincture
Method: An individual who was unable to fill […] hydroxychloroquine prescription to treat the arthritis during the COVID-19 pandemic was administered a glycerol tincture containing the cannabidiol anion.

[14] = system: individual who presented with back pain associated with driving for prolonged periods of time; test: Case report: acute back pain; assay type: in vivo, humans; conditions: glycerol tincture, ingested
Method: An individual who presented with back pain associated with driving for prolonged periods of time was administered a glycerol tincture containing the cannabidiol anion.

[15] = system: individual who presented with cramping and restless legs syndrome; test: Case report: cramping and restless legs syndrome; assay type: in vivo, humans; conditions: glycerol tincture before sleep
Method: An individual who presented with cramping and restless legs syndrome was administered a glycerol tincture containing the cannabidiol anion before sleep.

[16] = system: individual who presented with hip pain associated with sitting; test: Case report: chronic hip pain; assay type: in vivo, humans; conditions: glycerol tincture, ingested
Method: An individual who presented with hip pain associated with sitting was administered a glycerol tincture containing the cannabidiol anion.

[17] = system: individual with hip pain and lower back pain associated with spinal fusion surgery; test: Case report: post laminectomy syndrome; assay type: in vivo, humans; conditions: glycerol tincture, ingested
Method: An individual with hip pain and lower back pain associated with spinal fusion surgery was administered a glycerol tincture containing the cannabidiol anion.

SMILES: CCCCCc1cc(O)c(C/C=C(\C)CCC=C(C)C)c(O)c1 [cannabigerol anion, 2-geranyl-3-hydroxy-5-pentylphenolate]
- plaque psoriasis symptoms (self-reported) [1]: significant improvement in their plaque psoriasis symptoms
- symptoms of Crohn's disease (self-reported) [2]: significant improvement in their symptoms of Crohn's disease
- chronic anxiety symptoms (self-reported) (individuals with anxiety; glycerol tincture): significant improvement in their anxiety symptoms
- peripheral neuropathy symptoms (self-reported) [3]: significant improvement in their peripheral neuropathy symptoms
- onset and quality of sleep (self-reported) [4]: significant improvement in the onset and quality of their sleep
- symptoms of Inflammatory Bowel Disease (self-reported) [5]: significant improvement in their symptoms of Inflammatory Bowel Disease

SMILES: CCCc1cc(O)c(C/C=C(\C)CCC=C(C)C)c(O)c1 [cannabigerovarin, 2-geranyl-5-propylbenzene-1,3-diol]
- right hind paw inflammation (Female Sabra mice): dose-dependent reduction
- right hind paw pain (Female Sabra mice): dose-dependent reduction
- imaged right knee neutrophil elastase [6]: dose-dependent reduction
- adamts4 transcripts [6]: dose-dependent reduction
- myeloperoxidase transcripts [6]: dose-dependent reduction
- neutrophil elastase transcripts [6]: dose-dependent reduction
- serum TNF-alpha concentration (TNF-alpha): dose-dependent reduction
- body weight (Mice fed a high-fat diet): dose-dependent reduction
- serum ALT (Mice fed a high-fat diet): dose-dependent reduction
- serum AST (Mice fed a high-fat diet): dose-dependent reduction
- liver steatosis (Mice fed a high-fat diet): dose-dependent reduction

SMILES: C=C(C)C1CCC(C)=CC1c1c(O)cc(CCCCC)cc1O (stereo not shown) [cannabidiol anion, 2-[6-isopropenyl-3-methylcyclohex-2-enyl]-3-hydroxy-5-pentylphenolate]
- back pain (self-reported) [7]: notable alleviation of the back pain within minutes of ingestion
- throat pain (self-reported) [8]: notable alleviation of throat pain within minutes of ingestion
- social anxiety and performance during business meeting (self-reported) [9]: reduced anxiety and improved performance during the business meeting
- anxiety during drive to airport (self-reported) (individuals with anxiety; beverage containing the anion, before driving): notable absence of anxiety
- chronic pain (self-reported) [10]: alleviation of pain that significantly improved their standard of living
- mobility and knee pain (self-reported) [11]: improved mobility and alleviation of knee pain within minutes of ingestion
- seizures (reported by owners) [12]: both instantaneously and consistently arrested multiple seizures in the dog
- treatment of arthritis compared with hydroxychloroquine (self-reported) [13]: more effective at treating their arthritis than hydroxychloroquine
- back pain (self-reported) [14]: notable alleviation of the back pain within minutes of ingestion
- sleep quality (self-reported) [15]: significant improvement in sleep quality
- hip pain (self-reported) [16]: notable alleviation of the hip pain within minutes of ingestion
- hip pain and lower back pain (self-reported) [17]: notable alleviation of hip pain and lower back pain within minutes of ingestion

SMILES: CCCCCc1cc(O)c(C/C=C(\C)CCC=C(C)C)c(O)c1 [cannabigerol, 2-geranyl-5-pentylbenzene-1,3-diol]
- right hind paw inflammation (Female Sabra mice): dose-dependent reduction
- right hind paw pain (Female Sabra mice): dose-dependent reduction
- imaged right knee neutrophil elastase [6]: dose-dependent reduction
- adamts4 transcripts [6]: dose-dependent reduction
- myeloperoxidase transcripts [6]: dose-dependent reduction
- neutrophil elastase transcripts [6]: dose-dependent reduction
- serum TNF-alpha concentration (TNF-alpha): dose-dependent reduction
- body weight (Mice fed a high-fat diet): dose-dependent reduction
- serum ALT (Mice fed a high-fat diet): dose-dependent reduction
- serum AST (Mice fed a high-fat diet): dose-dependent reduction
- liver steatosis (Mice fed a high-fat diet): dose-dependent reduction
